Measurements: paper PMC11714206, “Massively Parallel Screening of Toll/Interleukin‐1 Receptor (TIR)‐Derived Peptides Reveals Multiple Toll‐Like Receptors (TLRs)‐Targeting Immunomodulatory Peptides” (Advanced Science, 2024)
Blank lines part the entries; values can stand above or below the sequence they belong to.

Biological target: T1, MyD88^TIR (Homo sapiens, UniProt Q99836)
T1 construct: MyD88 (residues 148–296); 6xHis; made in house; host or cells: E. coli BL21 (DE3)
Experiment: T‐Surf phage library (P8 and P3) selection against MyD88^TIR, four rounds, NGS read counts
Assay type: binding
Conditions: for Population: P8_MyD88 pool: P8 T-Surf phage library, 4th round of selection against MyD88 TIR, share of NGS reads; for P8_MyD88 Rank (after) / P8_MyD88 Rank (before): P8 library; for P3_MyD88 Rank (after) / P3_MyD88 Rank (before): P3 library
Outline: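 Coat TIR domain 5 µg mL^−1 overnight; block 0.2% BSA/PBS 1 h, 4 °C; add phage library 1 h, RT; wash ×4 PBS/0.5% Tween‐20; elute 100 mM HCl, neutralize Tris; amplify in TG1, PEG‐precipitate. Repeat to round 4; barcode PCR, NovaSeq, count reads.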

[1] = P8_MyD88: rank by count after grouping
[2] = P8_MyD88: rank by count before grouping
[3] = selection against MyD88, rank by count after grouping
[4] = selection against MyD88, rank by count before grouping
[5] = selection against MyD88, rank after grouping
[6] = selection against MyD88, rank before grouping
[7] = P8_MyD88: rank by NGS read count after grouping
[8] = P8_MyD88: rank by NGS read count before grouping
[9] = selection against MyD88 TIR, rank by count after grouping
[10] = selection against MyD88 TIR, rank by count before grouping
[11] = 4R selection against MyD88, rank after grouping
[12] = 4R selection against MyD88, rank before grouping

T1 sequence (Q99836 148-296): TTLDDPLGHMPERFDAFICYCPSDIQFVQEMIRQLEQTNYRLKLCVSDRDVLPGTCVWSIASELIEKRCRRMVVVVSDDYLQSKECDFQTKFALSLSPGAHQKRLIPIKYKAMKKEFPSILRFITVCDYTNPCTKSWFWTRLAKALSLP

P8_MyD88 Rank (after) [9]: 287
P8_MyD88 Rank (before) [10]: 3472
Sequence: PQDLEWLYERLVRLIL

P8_MyD88 Rank (after) [3]: 726
P8_MyD88 Rank (before) [4]: 3492
Sequence: PQDQEWFYERIVSLP

Rank (after) [7]: 1011
Rank (before) [8]: 3504
Sequence: PQELECIYKRLVSLIL

P8_MyD88 Rank (after) [9]: 240
P8_MyD88 Rank (before) [10]: 3497
Sequence: PQELEWCYERLVSLIL

Rank (after) [1]: 455
Rank (before) [2]: 3496
Sequence: PQELEWFHKRLVRLIL

Rank (after) [1]: 447
Rank (before) [2]: 3414
Sequence: PQVLGWFYERLVSLIL

P8_MyD88 Rank (after) [9]: 278
P8_MyD88 Rank (before) [10]: 3410
Sequence: PRDLEWLYERLVSLIL

P3_MyD88 Rank (after) [9]: 285
P3_MyD88 Rank (before) [10]: 2735
Sequence: PSDVRKKTGSLAKAFA

P3_MyD88 Rank (after) [11]: 593
P3_MyD88 Rank (before) [12]: 2756
Sequence: PSEVRKQTGSLAKAAL

P3_MyD88 Rank (after) [9]: 195
P3_MyD88 Rank (before) [10]: 1127
Sequence: PSEVRNRPAAWRKRL

Rank (after) (P3_MyD88: rank by count after grouping): 474
Rank (before) (P3_MyD88: rank by count before grouping): 2698
Sequence: PVAHDLSKKMKIFATI

P8_MyD88 Rank (after) [9]: 199
P8_MyD88 Rank (before) [10]: 291
Sequence: PYLLWVFDDEDGQELF

Rank (after) [1]: 113
Rank (before) [2]: 121
Population: 0.0181%
Sequence: QDLEQFYERLISRILQ

P8_MyD88 Rank (after) [3]: 685
P8_MyD88 Rank (before) [4]: 3567
Sequence: QDLEQFYERLVSLI

P8_MyD88 Rank (after) [3]: 735
P8_MyD88 Rank (before) [4]: 3564
Sequence: QDLGWFYERLFSQM

Rank (after) [1]: 108
Rank (before) [2]: 114
Population: 0.02%
Sequence: QDLGWFYERLISQILK

P3_MyD88 Rank (after) [9]: 226
P3_MyD88 Rank (before) [10]: 2893
Sequence: QEVEGWRDALTKVASM

Rank (after) [1]: 158
Rank (before) [2]: 175
Population: 0.00809%
Sequence: QWALEELRLIMELHSV

Rank (after) [1]: 144
Rank (before) [2]: 161
Population: 0.00925%
Sequence: QYLRWPEDFQDVGWFL

The next lines start with the sequence.

Sequence: PQDLDWFYERLVSLL
Rank (after) [1]: 101
Rank (before) [2]: 120
Population: 0.0189%

Sequence: PQDLDWFYERLVSQM
P8_MyD88 Rank (after) [3]: 716
P8_MyD88 Rank (before) [4]: 3426

Sequence: PQDLEWFYERGEPDS
P8_MyD88 Rank (after) [3]: 751
P8_MyD88 Rank (before) [4]: 3445

Sequence: PQDLEWFYERLFSQM
Rank (after) [1]: 96
Rank (before) [2]: 102
Population: 0.0227%

Sequence: PQDLEWFYERLVTHVLLRHL
P8_MyD88 Rank (after) [5]: 566
P8_MyD88 Rank (before) [6]: 3461

Sequence: PQDLEWFYERMVGLIL
Rank (after) [7]: 879
Rank (before) [8]: 3429

Sequence: PQDLGWFYERLISQILK
Rank (after) [1]: 386
Rank (before) [2]: 1201

Sequence: PQDLGWYYERLVSLIL
Rank (after) [7]: 888
Rank (before) [8]: 3421

Sequence: PQDLQWFYERLVSLI
Rank (after) [1]: 150
Rank (before) [2]: 186
Population: 0.00694%

Sequence: PQDLVWFFEGLVSLIL
Rank (after) [7]: 952
Rank (before) [8]: 3420

Sequence: PQDQEWFYERMVSLIL
P8_MyD88 Rank (after) [5]: 517
P8_MyD88 Rank (before) [6]: 3491

Sequence: PQDRERFFERLFSLF
Rank (after) [7]: 998
Rank (before) [8]: 3490

Sequence: PQELEWFYERPVSLML
Rank (after) [1]: 458
Rank (before) [2]: 3506

Sequence: PQEQVWFYERQVSLIV
P8_MyD88 Rank (after) [5]: 533
P8_MyD88 Rank (before) [6]: 3500

Sequence: PQEREWFYERLVSLIL
Rank (after) [7]: 991
Rank (before) [8]: 3499

Sequence: PQVVACFFQRLESMIL
Rank (after) [7]: 871
Rank (before) [8]: 3403

Sequence: PRDLEWFYEHLVSLIL
P8_MyD88 Rank (after) [3]: 736
P8_MyD88 Rank (before) [4]: 3409

Sequence: PSEVRKQTGSLAKALCD
P3_MyD88 Rank (after) [5]: 488
P3_MyD88 Rank (before) [6]: 2753

Sequence: PSEVRKQTGSLAKALRRNCC
P3_MyD88 Rank (after) [9]: 254
P3_MyD88 Rank (before) [10]: 1130

Sequence: PSEVRVVDDGSVSPLEM
P3_MyD88 Rank (after) [9]: 211
P3_MyD88 Rank (before) [10]: 1126

Sequence: QDLGWFYERLVSLF
P8_MyD88 Rank (after) [11]: 590
P8_MyD88 Rank (before) [12]: 3565

Sequence: QGDPSYRLTLHYRDVN
P3_MyD88 Rank (after) [11]: 591
P3_MyD88 Rank (before) [12]: 2866

Sequence: QGGDEITPSLFKAFKD
P3_MyD88 Rank (after) [9]: 265
P3_MyD88 Rank (before) [10]: 1150

Sequence: QLIGCGNTFFRWKKKIR
Rank (after) [7]: 1002
Rank (before) [8]: 3572

Sequence: QLIQQWIELHLHQLH
P8_MyD88 Rank (after) [11]: 588
P8_MyD88 Rank (before) [12]: 3585

Sequence: QLIQQWIELHLHQLHL
P3_MyD88 Rank (after) [5]: 499
P3_MyD88 Rank (before) [6]: 2880

Sequence: QQISLVQLKVLEESHV
P8_MyD88 Rank (after) [11]: 648
P8_MyD88 Rank (before) [12]: 3604

Sequence: QQVVRYRLEIVRVTKL
P3_MyD88 Rank (after) [3]: 738
P3_MyD88 Rank (before) [4]: 2882

Sequence: QSAWALNQLLQIIDWH
P8_MyD88 Rank (after) [9]: 196
P8_MyD88 Rank (before) [10]: 269
